Laboratory results: the supplement of paper PMC10627819

Assays:
Test in all cases: Bliss interaction score (quartile over a dose matrix) (fitness difference); higher = more antagonism (negative = synergy)
S. aureus DSM 20231 = system: S. aureus DSM 20231
Outline: (§1)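 Quartiles of the Bliss score were taken over technical, biological and donor/recipient replicates. That score is observed fitness minus the product of the single-drug fitness values, which were inferred from combination data. Fitness itself is OD595 at entry into stationary phase divided by the plate's robust no-drug mean, with a cap at 1.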

B. subtilis 168 = system: B. subtilis 168
Outline: as §1

S. pneumoniae D39V = system: S. pneumoniae D39V
Outline: as §1

S. aureus Newman = system: S. aureus Newman
Outline: as §1
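Also: first quartile when negative (synergy) and third quartile when positive (antagonism).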

## CC1(C)S[C@@H]2[C@H](NC(=O)[C@H](N)c3ccc(O)cc3)C(=O)N2[C@H]1C(=O)O [Amoxicillin] + CO[C@@]12[C@H](COC(N)=O)C3=C(C(=O)C(C)=C(N)C3=O)N1C[C@@H]1N[C@@H]12 [MitomycinC]
S. aureus DSM 20231
  Bliss interaction score: -0.0743
B. subtilis 168
  Bliss interaction score: 0.0389
S. pneumoniae D39V
  Bliss interaction score: 0.0839
S. aureus Newman
  Bliss interaction score: 0.0558

## CC1(C)S[C@@H]2[C@H](NC(=O)[C@H](N)c3ccc(O)cc3)C(=O)N2[C@H]1C(=O)O [Amoxicillin] + N[C@@H]1CONC1=O [CycloserineD]
S. aureus DSM 20231
  Bliss interaction score: -0.0593
B. subtilis 168
  Bliss interaction score: 0.187
S. pneumoniae D39V
  Bliss interaction score: -0.108
S. aureus Newman
  Bliss interaction score: 0.035

## CC1(C)S[C@@H]2[C@H](NC(=O)[C@H](N)c3ccc(O)cc3)C(=O)N2[C@H]1C(=O)O [Amoxicillin] + O=C(O)[C@H]1/C(=C/CO)O[C@@H]2CC(=O)N21 [Clavulanic]
S. aureus DSM 20231
  Bliss interaction score: -0.114
B. subtilis 168
  Bliss interaction score: -0.152
S. pneumoniae D39V
  Bliss interaction score: -0.0705
S. aureus Newman
  Bliss interaction score: -0.117

## CC1(C)S[C@@H]2[C@H](NC(=O)[C@H](N)c3ccc(O)cc3)C(=O)N2[C@H]1C(=O)O [Amoxicillin] + Oc1cc(Cl)ccc1Oc1ccc(Cl)cc1Cl [Triclosan]
S. aureus DSM 20231
  Bliss interaction score: 0.028
B. subtilis 168
  Bliss interaction score: -0.0443
S. pneumoniae D39V
  Bliss interaction score: -0.0734
S. aureus Newman
  Bliss interaction score: 0.0346

## CO/N=C(\C(=O)N[C@@H]1C(=O)N2C(C(=O)[O-])=C(C[N+]3(C)CCCC3)CS[C@H]12)c1csc(N)n1 [Cefepime] + CC1(C)S[C@@H]2[C@H](NC(=O)Cc3ccccc3)C(=O)N2[C@H]1C(=O)O [PenicillinG]
S. aureus DSM 20231
  Bliss interaction score: 0.0733
B. subtilis 168
  Bliss interaction score: -0.0668
S. pneumoniae D39V
  Bliss interaction score: -0.0873
S. aureus Newman
  Bliss interaction score: -0.0463

## CO/N=C(\C(=O)N[C@@H]1C(=O)N2C(C(=O)[O-])=C(C[N+]3(C)CCCC3)CS[C@H]12)c1csc(N)n1 [Cefepime] + CC(=O)O[C@H]1C[C@@]2(C)[C@@H](C[C@@H](O)[C@H]3[C@@]4(C)CC[C@@H](O)[C@@H](C)[C@@H]4CC[C@@]32C)/C1=C(\CCC=C(C)C)C(=O)O [Fusidic acid]
S. aureus DSM 20231
  Bliss interaction score: 0.062
B. subtilis 168
  Bliss interaction score: 0.0845
S. pneumoniae D39V
  Bliss interaction score: 0.174
S. aureus Newman
  Bliss interaction score: 0.0735

## CO/N=C(\C(=O)N[C@@H]1C(=O)N2C(C(=O)[O-])=C(C[N+]3(C)CCCC3)CS[C@H]12)c1csc(N)n1 [Cefepime] + CCC[C@@H]1C[C@@H](C(=O)N[C@@H]([C@H]2O[C@H](SC)[C@H](O)[C@@H](O)[C@H]2O)[C@H](C)Cl)N(C)C1 [Clindamycin]
S. aureus DSM 20231
  Bliss interaction score: 0.0679
B. subtilis 168
  Bliss interaction score: 0.0651
S. pneumoniae D39V
  Bliss interaction score: 0.162
S. aureus Newman
  Bliss interaction score: 0.0778

## CO/N=C(\C(=O)N[C@@H]1C(=O)N2C(C(=O)[O-])=C(C[N+]3(C)CCCC3)CS[C@H]12)c1csc(N)n1 [Cefepime] + CC[C@H]1OC(=O)[C@H](C)C(=O)[C@H](C)[C@@H](O[C@@H]2O[C@H](C)C[C@H](N(C)C)[C@H]2O)[C@](C)(OC)C[C@@H](C)C(=O)[C@H](C)[C@H]2N(CCCCn3cnc(-c4cccnc4)c3)C(=O)O[C@]12C [Telithromycin]
S. aureus DSM 20231
  Bliss interaction score: 0.0789
B. subtilis 168
  Bliss interaction score: 0.122
S. pneumoniae D39V
  Bliss interaction score: -0.0487
S. aureus Newman
  Bliss interaction score: 0.0252

## CO/N=C(\C(=O)N[C@@H]1C(=O)N2C(C(=O)[O-])=C(C[N+]3(C)CCCC3)CS[C@H]12)c1csc(N)n1 [Cefepime] + CC[C@H]1OC(=O)[C@H](C)[C@@H](O[C@H]2C[C@@](C)(OC)[C@@H](O)[C@H](C)O2)[C@H](C)[C@@H](O[C@@H]2O[C@H](C)C[C@H](N(C)C)[C@H]2O)[C@](C)(O)C[C@@H](C)C(=O)[C@H](C)[C@@H](O)[C@]1(C)O [Erythromycin]
S. aureus DSM 20231
  Bliss interaction score: 0.0701
B. subtilis 168
  Bliss interaction score: 0.0672
S. pneumoniae D39V
  Bliss interaction score: 0.0938
S. aureus Newman
  Bliss interaction score: 0.0704

## CO/N=C(\C(=O)N[C@@H]1C(=O)N2C(C(=O)[O-])=C(C[N+]3(C)CCCC3)CS[C@H]12)c1csc(N)n1 [Cefepime] + CC[C@H]1OC(=O)[C@H](C)[C@@H](O[C@H]2C[C@@](C)(OC)[C@@H](O)[C@H](C)O2)[C@H](C)[C@@H](O[C@@H]2O[C@H](C)C[C@H](N(C)C)[C@H]2O)[C@](C)(OC)C[C@@H](C)C(=O)[C@H](C)[C@@H](O)[C@]1(C)O [Clarithromycin]
S. aureus DSM 20231
  Bliss interaction score: 0.128
B. subtilis 168
  Bliss interaction score: 0.0395
S. pneumoniae D39V
  Bliss interaction score: 0.07
S. aureus Newman
  Bliss interaction score: 0.0613

## CO/N=C(\C(=O)N[C@@H]1C(=O)N2C(C(=O)[O-])=C(C[N+]3(C)CCCC3)CS[C@H]12)c1csc(N)n1 [Cefepime] + CN(C)[C@@H]1C(O)=C(C(N)=O)C(=O)[C@@]2(O)C(O)=C3C(=O)c4c(O)ccc(Cl)c4[C@@](C)(O)[C@H]3C[C@@H]12 [Clortetracycline]
S. aureus DSM 20231
  Bliss interaction score: 0.0809
B. subtilis 168
  Bliss interaction score: 0.0651
S. pneumoniae D39V
  Bliss interaction score: 0.163
S. aureus Newman
  Bliss interaction score: 0.105

## CO/N=C(\C(=O)N[C@@H]1C(=O)N2C(C(=O)[O-])=C(C[N+]3(C)CCCC3)CS[C@H]12)c1csc(N)n1 [Cefepime] + CN[C@H](CC(C)C)C(=O)N[C@H]1C(=O)N[C@@H](CC(N)=O)C(=O)N[C@H]2C(=O)N[C@H]3C(=O)N[C@H](C(=O)N[C@H](C(=O)O)c4cc(O)cc(O)c4-c4cc3ccc4O)[C@H](O[C@H]3C[C@](C)(N)[C@@H](O)[C@H](C)O3)c3ccc(c(Cl)c3)Oc3cc2cc(c3O[C@@H]2O[C@H](CO)[C@@H](O)[C@H](O)[C@H]2O[C@H]2C[C@](C)(NCc3ccc(-c4ccc(Cl)cc4)cc3)[C@@H](O)[C@H](C)O2)Oc2ccc(cc2Cl)[C@H]1O [Oritavancin]
S. aureus DSM 20231
  Bliss interaction score: 0.0977
B. subtilis 168
  Bliss interaction score: 0.0342
S. pneumoniae D39V
  Bliss interaction score: -0.0811
S. aureus Newman
  Bliss interaction score: 0.0749

## CO/N=C(\C(=O)N[C@@H]1C(=O)N2C(C(=O)[O-])=C(C[N+]3(C)CCCC3)CS[C@H]12)c1csc(N)n1 [Cefepime] + CO/N=C(\C(=O)N[C@@H]1C(=O)N2C(C(=O)O)=C(COC(C)=O)CS[C@H]12)c1csc(N)n1 [Cefotaxime]
S. aureus DSM 20231
  Bliss interaction score: 0.0767
B. subtilis 168
  Bliss interaction score: 0.0354
S. pneumoniae D39V
  Bliss interaction score: 0.0698
S. aureus Newman
  Bliss interaction score: 0.0764
